“Also recorded” adds a separate entry of the source. Where a SMILES comes first, the peptide text is derived from it. [ ]: non-standard residue; d: D form. N(4-MeOBn)Gly = COc1ccc(CNCC(=O)O)cc1; NMeR = CN[C@@H](CCCNC(=N)N)C(=O)O; Gly(N-CH2CH2OH) = O=C(O)CNCCO; NMeS = CN[C@@H](CO)C(=O)O; Nlys = NCCCCNCC(=O)O
What was measured:
[1] = tested on: T1, human 20S proteasome, ChT-L peptidase; test: Chymotrypsin-like (ChT-L) activity of h20S probed with Suc-LLVY-AMC; format: biochemical; conditions: 100 μM Suc-LLVY-AMC; for ChT-L stimulating capacity, Suc-LLVY-AMC: whole concentration range
T1 construct: human proteasome isolated from erythrocytes; from tissue; host or cells: human erythrocytes
Experimental: (§1) To assess the influence of substitutions increasing proteolytic stability on the modulators’ capacity to stimulate chymotrypsin-like, trypsin-like, and caspase-like activity of h20S, we used classic fluorogenic substrates: Suc-LLVY-AMC, Boc-LRR-AMC, and Z-LLE-AMC, respectively.
(§2) The effect of all synthesized peptidomimetics on the catalytic activity of the proteasome was tested using a human proteasome isolated from erythrocytes. Suc-LLVY-AMC, Boc-LRR-AMC, and Z-LLE-AMC fluorogenic substrates (Bachem, Bubendorf, Switzerland) were used for assessment of the chymotrypsin-, trypsin-, and caspase-like activities, respectively. A homemade FRET-type substrate Dabcyl-EDANS (Lys(Dabcyl)-[…]EDANS)-Gly)[26] was used as an additional probe. Stock solutions of the substrates and tested peptidomimetics were prepared in dimethyl sulfoxide (DMSO), ensuring that the final concentration of DMSO in all samples remained consistent at 2%. The small fluorogenic substrates were used at a final concentration of 100 μM, while Dabcyl-EDANS was prepared at a final concentration of 15 μM. […] Activity tests were conducted in 96-well plates using 50 mM Tris/HCl, pH 8.0, as an assay buffer. The final concentration of h20S proteasome was adjusted to 0.002 mg/mL (2.8 nM). The fluorescence of released aminomethylcoumarin (AMC) was monitored at 460 nm (λex was 380 nm), while the hydrolysis of Dabcyl-EDANS was detected by measuring emission at 493 nm (λex was set at 335 nm). Fluorescence measurements were taken continuously every 2 min over a 60 min period at 37 °C using a Tecan Infinite M200Pro spectrofluorometer (Tecan Trading AG, Männedorf, Switzerland). All activity assays were performed in at least three independent replicates. The relative activity was calculated in relation to the catalytic activity of the vehicle (DMSO)-treated latent proteasome, which was regarded as 100%. Statistical analysis was performed using the one-way ANOVA followed by Tukey’s post-hoc test. P-value <0.05 was considered statistically significant.

[2] = Stability of the compounds in human plasma (UHPLC); format: in vitro ADME; conditions: 37 °C, 30 min
Experimental: We tested the proteolytic stability of the obtained peptidomimetics by incubating them with human plasma at 37 °C for 30 min. The process was monitored by UHPLC. Using mass spectrometry, the proteolytic degradation sites were determined (Figure 1B). […] Apparently, the modifications made the modulators considerably less susceptible to the action of proteases present in the plasma.
The modulators were incubated with human serum (Merck, Darmstadt, Germany) at 37 °C for 30 min. The compounds were dissolved in water, and their final concentration was 200 μM. Every 5 min, samples were taken from the incubated solution, and the reaction was stopped with 6% trichloroacetic acid (TCA) added to the sample in a 1:1 (v/v) ratio. Next, the samples were centrifuged for 10 min at 4 °C and 14,000 rpm. The supernatant was subjected to HPLC and MS analyses. The progress of proteolytic degradation of modulators was monitored using a UHPLC chromatograph (Shimadzu, Tokyo, Japan) with a Kinetex analytical column 100 mm × 2.1 mm, 2.6 μm, 100 Å (Phenomenex, Torrance, CA, USA) with UV detection at a wavelength of 223 nm. The degree of degradation was estimated based on the area of the peaks corresponding to the starting materials. In order to identify peptide fragments resulting from degradation, analysis was performed using an Autoflex maX MALDI TOF mass spectrometer (Bruker, […]). All experiments were performed in at least three independent replicates.

[3] = tested on: T2, human 20S proteasome; test: h20S proteasome activity probed with FRET-type Dabcyl-EDANS substrate; format: biochemical; conditions: for h20S stimulating capacity, Dabcyl-EDANS: 1.0-50 μM modulator
T2 construct: human proteasome isolated from erythrocytes; from tissue; host or cells: human erythrocytes
Source text: (§3) To assess the influence of substitutions increasing proteolytic stability on the modulators’ capacity to stimulate chymotrypsin-like, trypsin-like, and caspase-like activity of h20S, we used classic fluorogenic substrates: Suc-LLVY-AMC, Boc-LRR-AMC, and Z-LLE-AMC, respectively. To confirm the observed stimulating capacity, we also conducted assays using a FRET-type reporter peptide with a sequence consisting of 11 residues (Lys(Dabcyl)-[…]EDANS)-Gly).[27] As we checked, the activated 20S hydrolyzed this substrate after more than one residue (Lys, Gly, and Glu), which makes it a probe better reflecting the concerted action of the proteasome’s three peptidases. […] The discrepancy in the level of activation was mainly due to the greater sensitivity of the FRET substrate, as it is not digested, unlike the AMC-based probes, by the latent proteasome, which results in greater differences in fluorescence relative to the controls. […] The ability to affect individual peptidases of the proteasome in different ways is most likely related to the allosteric mechanism of action of the modulators. Binding at a site distant from the catalytic compartment may result in greater diversity in the pathways by which the signal reaches active sites and differential effects of that signal on each peptidase.
(§4) The effect of all synthesized peptidomimetics on the catalytic activity of the proteasome was tested using a human proteasome isolated from erythrocytes. Suc-LLVY-AMC, Boc-LRR-AMC, and Z-LLE-AMC fluorogenic substrates (Bachem, Bubendorf, Switzerland) were used for assessment of the chymotrypsin-, trypsin-, and caspase-like activities, respectively. A homemade FRET-type substrate Dabcyl-EDANS (Lys(Dabcyl)-[…]EDANS)-Gly)[26] was used as an additional probe. Stock solutions of the substrates and tested peptidomimetics were prepared in dimethyl sulfoxide (DMSO), ensuring that the final concentration of DMSO in all samples remained consistent at 2%. The small fluorogenic substrates were used at a final concentration of 100 μM, while Dabcyl-EDANS was prepared at a final concentration of 15 μM. Modulators were tested in concentrations ranging from 1.0 to 50 μM, with compounds containing TAT or 6R sequences tested at lower concentrations ranging from 0.5 to 10 μM. Activity tests were conducted in 96-well plates using 50 mM Tris/HCl, pH 8.0, as an assay buffer. The final concentration of h20S proteasome was adjusted to 0.002 mg/mL (2.8 nM). The fluorescence of released aminomethylcoumarin (AMC) was monitored at 460 nm (λex was 380 nm), while the hydrolysis of Dabcyl-EDANS was detected by measuring emission at 493 nm (λex was set at 335 nm). Fluorescence measurements were taken continuously every 2 min over a 60 min period at 37 °C using a Tecan Infinite M200Pro spectrofluorometer (Tecan Trading AG, Männedorf, Switzerland). All activity assays were performed in at least three independent replicates. The relative activity was calculated in relation to the catalytic activity of the vehicle (DMSO)-treated latent proteasome, which was regarded as 100%. Statistical analysis was performed using the one-way ANOVA followed by Tukey’s post-hoc test. P-value <0.05 was considered statistically significant.

[4] = tested on: T3, human 20S proteasome, T-L peptidase; test: Trypsin-like (T-L) activity of h20S probed with Boc-LRR-AMC; format: biochemical; conditions: 100 μM Boc-LRR-AMC
T3 construct: human proteasome isolated from erythrocytes; from tissue; host or cells: human erythrocytes
Experimental: as §1, §2

[5] = tested on: T4, human 20S proteasome, C-L peptidase; test: Caspase-like (C-L) activity of h20S probed with Z-LLE-AMC; format: biochemical; conditions: 100 μM Z-LLE-AMC
T4 construct: human proteasome isolated from erythrocytes; from tissue; host or cells: human erythrocytes
Source text: as §3, §4

[6] = PAMPA, blood–brain barrier mimic; format: in vitro ADME; conditions: 500 μM, 37 °C, 22 h
Source text: In neurodegenerative diseases, proteins prone to aggregation accumulate in the neuronal cells. Therefore, a necessary feature of potential drugs is not only permeability across the cell membrane but also the ability to cross the blood-brain barrier (BBB). To preliminarily investigate this feature, we performed parallel artificial membrane permeation assays (PAMPA) including as positive controls propranolol and Tat47-57, known for their ability to penetrate the blood-brain barrier. Dopamine hydrobromide was included as a negative control. For comparison, we also tested compound 1a, which is devoid of a CPP sequence. […] The PAMPA was performed as previously described.[21] Briefly, a 2% solution of porcine brain lipid membrane (PBL; Avanti Polar Lipids Inc., Alabaster, AL, USA) in anhydrous dodecane was used as a mimic of the blood-brain barrier. Propranolol hydrochloride (Merck, Darmstadt, Germany) and Tat47-57 (synthesized in-house) served as positive controls, while dopamine hydrobromide (Merck, Darmstadt, Germany) was used as a negative control. Stock solutions of the tested compounds and controls were prepared at a concentration of 10 mM in deionized water and then diluted to 500 μM using 0.1 M PBS containing 5% DMSO. The donor-acceptor plate assembly was incubated at 37 °C while being shaken at 250 rpm for 22 h. Absorbance at 290 nm was measured for propranolol using an Infinite […] plate reader (Infinite […] plate reader, Tecan). For the other samples, fluorescence measurements were performed after the compounds were reacted with 0.02% fluorescamine. The rate of passive diffusion was calculated as the linear velocity of permeation (Pe). The data represent an average of three independent biological replicates.

| SMILES | ChT-L stimulating capacity, Suc-LLVY-AMC [1] | proteolytic stability in human plasma [2] | T-L stimulating capacity, Boc-LRR-AMC [4] | C-L stimulating capacity, Z-LLE-AMC [5] | permeability across artificial BBB membrane, PAMPA [6] | stimulation of h20S activity, Suc-LLVY-AMC probe ([1]; level reached vs latent proteasome) | stimulation of h20S activity, Dabcyl-EDANS probe ([3]; 15 μM Dabcyl-EDANS, level reached vs latent proteasome) | h20S stimulating potency, Dabcyl-EDANS ([3]; at the lowest concentrations) | remaining at 0.5 h ([2]; human, plasma, UHPLC, read-out: amount of compound remaining after incubation with human plasma) | h20S stimulating capacity, Dabcyl-EDANS ([3]; 15 μM Dabcyl-EDANS) |
| --- | --- | --- | --- | --- | --- | --- | --- | --- | --- | --- |
| C[C@@H](O)[C@H](NC(=O)[C@H](Cc1ccccc1)NC(=O)[C@H](Cc1ccc(O)cc1)NC(=O)CNCCCCN)C(=O)NCC(=O)N[C@@H](CO)C(=O)N[C@@H](CCCCN)C(=O)N[C@@H](CC(=O)O)C(=O)N[C@@H](Cc1c[nH]c2ccccc12)C(=O)N[C@@H](CCCNC(=N)N)C(=O)N(CCO)CC(=O)N[C@@H](Cc1ccc(O)cc1)C(=O)N[C@@H](Cc1ccc(O)cc1)C(=O)N[C@@H](CO)C(=O)O [1c] (H-[Nlys]YFTGSKDWR[Gly(N-CH2CH2OH)]YYS-OH) | lower capacity of activating h20S | most stable | – | – | – | – | – | – | – | less strongly than 1 |
| C[C@@H](O)[C@H](NC(=O)[C@H](Cc1ccccc1)NC(=O)[C@H](Cc1ccc(O)cc1)NC(=O)CNCCCCN)C(=O)NCC(=O)N[C@@H](CO)C(=O)N[C@@H](CCCCN)C(=O)N[C@@H](CC(=O)O)C(=O)N[C@@H](Cc1c[nH]c2ccccc12)C(=O)N[C@@H](CCCNC(=N)N)C(=O)N[C@@H](CO)C(=O)N[C@@H](Cc1ccc(O)cc1)C(=O)N[C@@H](Cc1ccc(O)cc1)C(=O)N[C@@H](CO)C(=O)O [compound 1a] (H-[Nlys]YFTGSKDWRSYYS-OH) | – | – | – | – | at the level of a negative control | 8 fold | 12 fold | even more potent than 1 | – | did not lose their ability to effectively stimulate h20S |
| C[C@@H](O)[C@H](NC(=O)[C@H](Cc1ccccc1)NC(=O)[C@H](Cc1ccc(O)cc1)NC(=O)[C@@H](N)CCCCN)C(=O)NCC(=O)N[C@@H](CO)C(=O)N[C@@H](CCCCN)C(=O)N[C@@H](CC(=O)O)C(=O)N[C@@H](Cc1c[nH]c2ccccc12)C(=O)N(C)[C@@H](CCCNC(=N)N)C(=O)N(C)[C@@H](CO)C(=O)N[C@@H](Cc1ccc(O)cc1)C(=O)N[C@@H](Cc1ccc(O)cc1)C(=O)N[C@@H](CO)C(=O)O [compound 1d] (H-KYFTGSKDW[NMeR][NMeS]YYS-OH) | lower capacity of activating h20S | – | poor activator | moderate activator | – | – | – | – | < 30% | reached stimulation levels equal to those of the best activators; also recorded: less strongly than 1 |

Continued, in another order:

| ChT-L stimulating capacity, Suc-LLVY-AMC [1] | proteolytic stability in human plasma [2] | T-L stimulating capacity, Boc-LRR-AMC [4] | C-L stimulating capacity, Z-LLE-AMC [5] | permeability across artificial BBB membrane, PAMPA [6] | stimulation of h20S activity, Suc-LLVY-AMC probe ([1]; level reached vs latent proteasome) | stimulation of h20S activity, Dabcyl-EDANS probe ([3]; 15 μM Dabcyl-EDANS, level reached vs latent proteasome) | h20S stimulating potency, Dabcyl-EDANS ([3]; at the lowest concentrations) | remaining at 0.5 h ([2]; human, plasma, UHPLC, read-out: amount of compound remaining after incubation with human plasma) | SMILES | h20S stimulating capacity, Dabcyl-EDANS ([3]; 15 μM Dabcyl-EDANS) |
| --- | --- | --- | --- | --- | --- | --- | --- | --- | --- | --- |
| least effective stimulants | most stable | weakest activators | weakest activators | – | – | – | – | – | COc1ccc(CN(CC(=O)N[C@@H](CCCNC(=N)N)C(=O)N[C@@H](CCCNC(=N)N)C(=O)N[C@@H](Cc2ccc(O)cc2)C(=O)N[C@@H](Cc2ccc(O)cc2)C(=O)N[C@@H](CO)C(=O)O)C(=O)[C@H](CC(=O)O)NC(=O)[C@H](CCCCN)NC(=O)[C@H](CO)NC(=O)CNC(=O)[C@@H](NC(=O)[C@H](Cc2ccccc2)NC(=O)CN(Cc2ccc(OC)cc2)C(=O)[C@@H](N)CCCCN)[C@@H](C)O)cc1 [2f] (H-K[N(4-MeOBn)Gly]FTGSKD[N(4-MeOBn)Gly]RRYYS-OH) | least effective stimulants |
| most effective h20S stimulators | very stable | – | – | – | – | – | – | – | C[C@@H](O)[C@H](NC(=O)[C@H](Cc1ccccc1)NC(=O)[C@H](Cc1ccc(O)cc1)NC(=O)CNCCCCN)C(=O)NCC(=O)N[C@@H](CO)C(=O)N[C@@H](CCCCN)C(=O)N[C@@H](CC(=O)O)C(=O)N[C@@H](Cc1ccc(O)cc1)C(=O)N[C@@H](CCCNC(=N)N)C(=O)N[C@@H](CCCNC(=N)N)C(=O)N[C@@H](Cc1ccc(O)cc1)C(=O)N[C@@H](Cc1ccc(O)cc1)C(=O)N[C@@H](CO)C(=O)O [compound 2a] (H-[Nlys]YFTGSKDYRRYYS-OH) | most effective h20S stimulators; also recorded: effective activator |

Reference: article PMC12035797, “Peptidomimetics Activating the Proteasome: A New Perspective for Parkinson’s Treatment” (Journal of Medicinal Chemistry, 2025)
